# Assay results: patent US20170209574A1, “COMBINATION THERAPIES” (Novartis AG, priority 2014, published 2017)
# Assays:
# [1] = tested on: EGFR mutant (L858R, ex19del and T790M) cancer models; settings: cited from earlier work
# PD-L1 (CD274) [2] = experiment: Flow cytometry of PD-L1 surface expression in EBC-1 cells treated with INC280; format: cell-based, human; settings: EBC-1 cells (NSCLC with cMET amplification), in vitro; INC280 10, 100, 1000 nM for 24, 48, 72 hours; FIG. 1
# Procedure: PD-L1 (CD274) expression was analyzed in cancer cell lines treated with INC280. Cells were obtained from ATCC and cultured in vitro following ATCC directions. The cell lines used were previously characterized by the Cancer Cell Line Encyclopedia Project (www.broadinstitute.org/ccle/home).
# Cells plated in six-well culture plates were treated with the INC280 at different concentrations (10 nM, 100 nM, and 1000 nM) for 24, 48 and 72 hours. Equal amount of vehicle (DMSO) was used as a control. Cells were washed with PBS and then harvested using a cell scraper.
# For each reaction, 0.5-1×10^6 cells were stained with 200 μL of anti-human monoclonal PD-L1-PE antibody, clone M1H1 (BD) for 30-60 minutes at 4° C. Cells were washed twice and data was acquired using a Canto II with FACSDiva software (BD Bioscience). Data analysis was performed using FlowJo software (Tree Star). Mean fluorescence intensity (MFI) was determined by gating on single cells. Unstained cells were used as a gating control.
# PD-L1 (CD274) [3] = experiment: TaqMan RT PCR of PD-L1 mRNA in Hs.746.T tumor xenograft; format: in vivo, human; settings: Hs.746.T tumor (gastric cancer cell with cMET amplification & mutation) xenograft; FIG. 2
# Procedure: (§1) TaqMan RT PCR assays were developed to detect changes of expression levels of PD-L1 (CD274) in cell lines and xenograft tumors. mRNA was isolated from frozen cell pellets or tumor fragments using the Qiagen RNeasy Mini kit. Isolated RNA was frozen at −80° C. RNA quality was checked and RNA was quantified using a 2100 Agilent Bioanalyzer following the protocol for the Agilent RNA 6000 Nano Kit. cDNA was prepared using a High Capacity RNA- to cDNA Kit (Applied Biosystems).
# (§2) Real-time PCR reactions were carried out in 20 μl total volume, including 10 μl of Universal PCR master mix (Applied Biosystems), 1 μl of human PD-L1 (CD274) probe/primer set (Applied Biosystems), and 8 μl of cDNA. Each sample was run in triplicate. The amount of cDNA produced from 25-50 ng of RNA in the reverse transcription reaction was used in each PCR reaction. Due to difference in mRNA levels between PD-L1 and GAPDH, the two real-time PCR reactions were done in separate tubes using same amount of cDNA. The real-time PCR reaction was run on the C1000 Thermal Cycle (BioRad) with the cycle program as follows: a 10 minute incubation at 95° C. followed by 40 cycles of 95° C. for 15 seconds and 60° C. for 1 minute. After the reaction was complete, the PD-L1 average Ct was normalized relative to each Ct value from the GAPDH reference reaction. Each normalized logarithmic value was then converted into a linear value.
# PD-L1 (CD274) [4] = experiment: TaqMan RT PCR of PD-L1 mRNA in UKE-1 tumor xenograft model; format: in vivo, human; settings: tumor xenograft model bearing UKE-1 (MPN line with JAK2V617F mutation); FIG. 6
# Procedure: as §1, §2
# PBMCs = experiment: Cytokine analysis (Luminex) of anti-CD3 stimulated PBMCs; format: cell-based, human; settings: suboptimal anti-CD3 0.005 ug/ml, LCL161 1, 50, 100 or 1000 nM, day 5 supernatants
# Procedure: Blood was obtained from normal healthy donors. Peripheral blood mononuclear cells (PBMCs) were isolated by centrifuging blood in CPT™ tubes for 18 minutes at 1800×g. Cells were washed twice with cold PBS, enumerated and then stimulated in 96-well round bottomed tissue culture plates (500,000 cells per well) for 5 days at 37° C., 5% CO2. Cells were either left untreated (DMSO control) or treated with different concentrations of LCL161 (1, 50, 100, or 1000 nM). For the cytokine analyses, cells were stimulated with a suboptimal anti-CD3 stimulus (0.005 ug/ml of soluble clone UCHT1). At day 5 post stimulation, supernatants were collected and analyzed for cytokines (Luminex).
# [5] = tested on: human CD4+ and CD8+ T cells; experiment: CFSE proliferation analysis of anti-CD3 stimulated PBMCs (FACS); format: cell-based; settings: 1 ug/ml soluble anti-CD3, increasing concentrations of LCL161, 5 days
# Procedure: For the proliferation analyses, cells were labeled with 5 uM carboxyfluorescein diacetate succinimidyl ester (CFSE) before stimulation, and then treated with 1 ug/ml soluble anti-CD3. Covalently bound CFSE is divided equally between daughter cells, allowing discrimination of successive rounds of cell division and to track proliferating cells (Lyons et al., Curr Protoc Cytom. 2013; Chapter 9: Unit 9.11). PBMCs were stimulated in the presence of increasing concentrations of LCL161 (or DMSO control) for 5 days. At day 5 post stimulation, cells were harvested, stained with anti-CD4, -CD8, -PD-1, or -CD127, followed by FACS analysis. Results for one donor are shown. Similar results were obtained with PBMCs from 4 other donors.
# TIM-3 = experiment: CyTOF mass cytometry of PBMCs (immune checkpoint modulation); format: cell-based, human; settings: PBMCs +/- 100 ng/mL anti-CD3, 100 nM LCL161, 4 days; monocytes, naive, memory and activated T killer cells, memory T helper cells; FIG. 9
# Procedure: PBMCs were isolated from healthy donors via BD CPT™ vacutainer tubes. 1 million cells/mL were plated in RPMI+10% FBS+/−100 ng/mL of anti-CD3 antibody+/−DMSO or 100 nM LCL161 for 4 days. Cells were harvested, washed, stained with a panel of metal-conjugated antibodies listed below in Table 2 for analysis by CyTOF mass cytometry. Data were visualized by SPADE using Cytobank webware. SPADE and its use are described, e.g., in Peng et al., Nature Biotechnology, 29, 886-891 (2011); Sean et al, Science, 332 (6030): 687-696 (2011).
# A Panel of Metal-Conjugated Antibodies for Analysis by CyTOF Mass Cytometry
# PD-L1 (CD274) [6] = experiment: TaqMan RT PCR of PD-L1 mRNA in H3122 cells in vitro; format: cell-based, human; settings: H3122 (NSCLC with ALK translocation) in vitro; FIG. 3
# Procedure: as §1, §2
# [7] = tested on: ALK-positive NSCLC patients; experiment: Clinical study of LDK378 in ALK-positive NSCLC patients; format: in vivo, human; settings: 750 mg; 53.3% of the patients censored
# PD-L1 (CD274) [8] = experiment: TaqMan RT PCR of PD-L1 mRNA in LOXIMV1 tumor xenograft model; format: in vivo, human; settings: tumor xenograft model bearing LOXIMV1 (BRAF mutant melanoma); FIG. 4
# Procedure: as §1, §2
# PD-L1 (CD274) [9] = experiment: TaqMan RT PCR of PD-L1 mRNA in HEYA8 tumor xenograft model; format: in vivo, human; settings: tumor xenograft model bearing HEYA8 (KRAS mutant ovarian cancer); FIG. 5
# Procedure: as §1, §2
smiles,measurement,setting,value
"Cc1cc(C(=O)Nc2nc3cccc(Cl)c3n2[C@@H]2CCCCN(C(=O)/C=C/CN(C)C)C2)ccn1 [EGF816, (R,E)-N-(7-chloro-1-(1-(4-(dimethylamino)but-2-enoyl)azepan-3-yl)-1H-benzo[d]imidazol-2-yl)-2-methylisonicotinamide]",efficacy in EGFR mutant cancer models,"[1]; L858R, ex19del and T790M, in vitro and in vivo",significant efficacy
same,WT EGFR inhibition,[1]; at clinically relevant efficacious concentrations,no indication of WT EGFR inhibition
"CNC(=O)c1ccc(-c2cnc3ncc(Cc4ccc5ncccc5c4)n3n2)cc1F [INC280, 2-fluoro-N-methyl-4-[7-(quinolin-6-ylmethyl)imidazo[1,2-b][1,2,4]triazin-2-yl]benzamide]",surface expression of PD-L1 (flow cytometry),PD-L1 (CD274) [2],significant downregulation of surface expression of PD-L1
same,PD-L1 expression (mRNA),PD-L1 (CD274) [3],Inhibition of PD-L1 expression (mRNA)
"N#CC[C@H](C1CCCC1)n1cc(-c2ncnc3[nH]ccc23)cn1 [INC424, (3R)-3-cyclopentyl-3-[4-(7H-pyrrolo-[2,3-d]pyrimidin-4-yl)-1H-pyrazol-1-yl]propanenitrile]",PD-L1 mRNA,PD-L1 (CD274) [4],Downregulation of PD-L1 mRNA
"CN[C@@H](C)C(=O)N[C@H](C(=O)N1CCC[C@H]1c1nc(C(=O)c2ccc(F)cc2)cs1)C1CCCCC1 [LCL161, (S)—N—((S)-1-cyclohexyl-2-((S)-2-(4-(4-fluorobenzoyl)thiazol-2-yl)pyrrolidin-1-yl)-2-oxoethyl)-2-(methylamino)propanamide]",IFN-gamma production,PBMCs; FIG. 7A,"increases in immune-active cytokine, IFN-gamma"
same,IL-10 production,PBMCs; FIG. 7B,reduction in immune-suppressive cytokine IL-10
same,proliferation of CD4+ T cells (CFSE dilution),[5]; FIG. 8A,enhanced proliferation
same,proliferation of CD8+ T cells (CFSE dilution),[5]; FIG. 8B,enhanced proliferation
same,TIM-3 expression,TIM-3,increase in TIM-3 expression
"Cc1cc(Nc2ncc(Cl)c(Nc3ccccc3S(=O)(=O)C(C)C)n2)c(OC(C)C)cc1C1CCNCC1 [LDK378, 5-chloro-N2-(2-isopropoxy-5-methyl-4-(piperidin-4-yl)-phenyl)-N4-[2-(propane-2-sulfonyl)-phenyl]-pyrimidine-2,4-diamine]",PD-L1 mRNA,PD-L1 (CD274) [6],Inhibition of PD-L1 mRNA
same,median progression-free survival (PFS),[7],8.21 months
"COC(=O)N[C@@H](C)CNc1nccc(-c2cn(C(C)C)nc2-c2cc(Cl)cc(NS(C)(=O)=O)c2F)n1 [LGX818, methyl (S)-(1-((4-(3-(5-chloro-2-fluoro-3-(methylsulfonamido)phenyl)-1-isopropyl-1H-pyrazol-4-yl)pyrimidin-2-yl)amino)propan-2-yl)carbamate]",PD-L1 mRNA,PD-L1 (CD274) [8],Downregulation of PD-L1 mRNA
"Cn1cnc2c(F)c(Nc3ccc(Br)cc3F)c(C(=O)NOCCO)cc21 [MEK162, 5-((4-bromo-2-fluorophenyl)amino)-4-fluoro-N-(2-hydroxyethoxy)-1-methyl-1H-benzo[d]imidazole-6-carboxamide]",PD-L1 mRNA,PD-L1 (CD274) [9],Downregulation of PD-L1 mRNA
